From patent US12139492B2 (Endotarget Inc., priority 2021, dated 2024)
Where two headings read alike, the source gives them in different places.

Columns and labels:
Mino cells = assay: Antiproliferative effect, MTS cell viability assay, Mino cells; format: cell-based; details: Mino mantle cell lymphoma cells, read-out: IC50 (anti-proliferation) Mino cells
Procedure: (§1) Antiproliferative effect of the exemplary compounds was assessed in B-cell malignancy models.
(§2) To assess the effect of the exemplary compounds on cell viability in B-cell malignancy models by degradation of BTK protein, Mino and JeKo-1 cells were treated with varying concentrations of Ibrutinib (0, 0.001, 0.01, 0.1, 1, 10 μM). Under these conditions, cell viability was determined by an MTS assay. Cytotoxicity was assayed by the determination of reduced tetrazolium (formazan) created by metabolically active cells as detected at 490 nm absorbance using a microplate reader (BMG Labtech, Cary, NC, USA).
(§3) The exemplary compounds attenuated the viability of Mino and JeKo-1 cells in a concentration-dependent manner at 72 h post treatment. Results are shown in Table 1 for each exemplary compound.

JeKo-1 cells = assay: Antiproliferative effect, MTS cell viability assay, JeKo-1 cells; format: cell-based; details: JeKo-1 mantle cell lymphoma cells, read-out: IC50 (anti-proliferation) JeKO-1 cells
Procedure: as §1, §2, §3

BTK = BTK (Homo sapiens, UniProt Q06187); assay: Degradation of BTK protein in Namalwa cells (Western blot; DC50, Dmax); details: for DC50: cell line not given
BTK, sequence (Q06187 whole entry): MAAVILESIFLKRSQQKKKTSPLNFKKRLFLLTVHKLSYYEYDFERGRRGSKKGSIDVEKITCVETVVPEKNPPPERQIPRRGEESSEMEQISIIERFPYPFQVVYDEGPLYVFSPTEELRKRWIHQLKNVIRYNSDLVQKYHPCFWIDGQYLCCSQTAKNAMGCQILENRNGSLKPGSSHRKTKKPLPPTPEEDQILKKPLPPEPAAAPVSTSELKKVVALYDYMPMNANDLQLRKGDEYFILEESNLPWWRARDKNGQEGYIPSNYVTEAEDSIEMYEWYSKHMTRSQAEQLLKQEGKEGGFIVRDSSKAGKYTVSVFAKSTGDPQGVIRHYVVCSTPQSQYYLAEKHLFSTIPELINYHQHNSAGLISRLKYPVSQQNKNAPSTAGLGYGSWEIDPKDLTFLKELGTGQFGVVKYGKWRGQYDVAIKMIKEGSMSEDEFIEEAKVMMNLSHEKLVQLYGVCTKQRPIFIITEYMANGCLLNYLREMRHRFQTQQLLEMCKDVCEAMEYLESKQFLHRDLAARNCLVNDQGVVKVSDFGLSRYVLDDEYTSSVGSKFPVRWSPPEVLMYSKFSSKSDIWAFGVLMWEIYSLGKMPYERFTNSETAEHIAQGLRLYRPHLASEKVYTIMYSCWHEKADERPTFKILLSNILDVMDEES

[1] = read-out: DC50 (BTK degradation), concentration giving 50% reduction of BTK expression level
[2] = read-out: Dmax (BTK degradation)

NC(=O)c1c(-c2ccc(Oc3ccccc3)cc2)nn2c1NCC[C@H]2C1CCN(C(=O)N2CCC(CN3CCN(c4ccc5c(c4)CN(C4CCC(=O)NC4=O)C5=O)CC3)CC2)CC1 (stereo partly drawn) [Compound 292, (7S)-7-(1-(4-((4-(2-(2,6-dioxopiperidin-3-yl)-1-oxoisoindolin-5-yl)piperazin-1-yl)methyl)piperidine-1-carbonyl)piperidin-4-yl)-2-(4-phenoxyphenyl)-4,5,6,7-tetrahydropyrazolo[1,5-a]pyrimidine-3-carboxamide]
IC50 (Mino cells; Homo sapiens, MINO): < 1000 nM
IC50 (JeKo-1 cells; Homo sapiens): < 1000 nM
Dmax (BTK): > 90%
DC50 (BTK; BTK degradation): < 10 nM

NC(=O)c1c(-c2ccc(Oc3ccccc3)cc2)nn2c1NCC[C@H]2C1CCN(C2CCN(C(=O)N3CCN(C4CCN(c5ccc6c(c5)C(=O)N(C5CCC(=O)NC5=O)C6=O)CC4)CC3)CC2)CC1 (stereo partly drawn) [Compound 385, (7S)-7-(1′-(4-(1-(2-(2,6-dioxopiperidin-3-yl)-1,3-dioxoisoindolin-5-yl)piperidin-4-yl)piperazine-1-carbonyl)-[1,4′-bipiperidin]-4-yl)-2-(4-phenoxyphenyl)-4,5,6,7-tetrahydropyrazolo[1,5-a]pyrimidine-3-carboxamide]
IC50 (Mino cells; Homo sapiens, MINO): < 1000 nM
IC50 (JeKo-1 cells; Homo sapiens): 1000 to 10000 nM
Dmax (BTK): > 90%
DC50 (BTK; BTK degradation): < 10 nM

NC(=O)c1c(-c2ccc(Oc3ccccc3)cc2)nn2c1NCCC2C1CCN(CCOCCOCCN2CCN(c3ccc4c(c3)CN(C3CCC(=O)NC3=O)C4=O)CC2)CC1 (centres unmarked) [Compound 270, 7-(1-(2-(2-(2-(4-(2-(2,6-dioxopiperidin-3-yl)-1-oxoisoindolin-5-yl)piperazin-1-yl)ethoxy)ethoxy)ethyl)piperidin-4-yl)-2-(4-phenoxyphenyl)-4,5,6,7-tetrahydropyrazolo[1,5-a]pyrimidine-3-carboxamide]
IC50 (Mino cells; Homo sapiens, MINO): 1000 to 10000 nM
IC50 (JeKo-1 cells; Homo sapiens): > 10000 nM
Dmax (BTK): > 90%
DC50 (BTK; BTK degradation): 10 to 50 nM

NC(=O)c1c(-c2ccc(Oc3ccccc3)cc2)nn2c1NCC[C@H]2C1CCN(C(=O)N2CCN(CCN3CCN(c4ccc5c(c4)C(=O)N(C4CCC(=O)NC4=O)C5=O)CC3)CC2)CC1 (stereo partly drawn) [Compound 297, (7S)-7-(1-(4-(2-(4-(2-(2,6-dioxopiperidin-3-yl)-1,3-dioxoisoindolin-5-yl)piperazin-1-yl)ethyl)piperazine-1-carbonyl)piperidin-4-yl)-2-(4-phenoxyphenyl)-4,5,6,7-tetrahydropyrazolo[1,5-a]pyrimidine-3-carboxamide]
IC50 (Mino cells; Homo sapiens, MINO): 1000 to 10000 nM
IC50 (JeKo-1 cells; Homo sapiens): 1000 to 10000 nM
Dmax (BTK): > 90%
DC50 (BTK; BTK degradation): 10 to 50 nM

NC1=NC=NC2C1C(c1ccc(Oc3ccccc3)cc1)=NN2C1CCN(C2CN(C(=O)N3CC(C4CN(c5ccc6c(c5)C(=O)N(C5CCC(=O)NC5=O)C6=O)C4)C3)C2)CC1 (centres unmarked) [Compound 499, 5-(1′-(3-(4-(4-amino-3-(4-phenoxyphenyl)-3a,7a-dihydro-1H-pyrazolo[3,4-d]pyrimidin-1-yl)piperidin-1-yl)azetidine-1-carbonyl)-[3,3′-biazetidin]-1-yl)-2-(2,6-dioxopiperidin-3-yl)isoindoline-1,3-dione]
IC50 (Mino cells; Homo sapiens, MINO): < 1000 nM
IC50 (JeKo-1 cells; Homo sapiens): 1000 to 10000 nM
DC50 (BTK; [1]): 10 to 50 nM
Dmax (BTK; [2]): > 75%

Nc1ncnc2c1c(-c1ccc(Oc3ccccc3)cc1)nn2C1CCN(CCOCCOCCN2CCC(c3ccc4c(c3)C(=O)N(C3CCC(=O)NC3=O)C4=O)CC2)CC1 (centres unmarked) [Compound 418, 5-(1-(2-(2-(2-(4-(4-amino-3-(4-phenoxyphenyl)-1H-pyrazolo[3,4-d]pyrimidin-1-yl)piperidin-1-yl)ethoxy)ethoxy)ethyl)piperidin-4-yl)-2-(2,6-dioxopiperidin-3-yl)isoindoline-1,3-dione]
IC50 (Mino cells): 1000 to 10000 nM
IC50 (JeKo-1 cells): 1000 to 10000 nM
degradation of BTK protein (BTK; Namalwa B lymphocyte cells, various concentrations, 24 hours, Western blot): dose-dependent degradation
DC50 (BTK; [1]): < 10 nM
Dmax (BTK; [2]): > 90%

Nc1ncnc2c1c(-c1ccc(Oc3ccccc3)cc1)nn2C1CCN(CCN2CCC(N3CCN(c4ccc5c(c4)CN(C4CCC(=O)NC4=O)C5=O)CC3)C2)CC1 (centres unmarked) [Compound 460, 3-(5-(4-(1-(2-(4-(4-amino-3-(4-phenoxyphenyl)-1H-pyrazolo[3,4-d]pyrimidin-1-yl)piperidin-1-yl)ethyl)pyrrolidin-3-yl)piperazin-1-yl)-1-oxoisoindolin-2-yl)piperidine-2,6-dione]
IC50 (Mino cells; Homo sapiens, MINO): 1000 to 10000 nM
IC50 (JeKo-1 cells; Homo sapiens): 1000 to 10000 nM
DC50 (BTK; [1]): 10 to 50 nM
Dmax (BTK; [2]): > 75%

NC(=O)c1c(-c2ccc(Oc3ccccc3)cc2)nn2c1NCC[C@H]2C1CCN(CC2CCN(C(=O)N3CCN(CC4CCN(c5ccc6c(c5)C(=O)N(C5CCC(=O)NC5=O)C6=O)CC4)CC3)CC2)CC1 (stereo partly drawn) [Compound 411, (7S)-7-(1-((1-(4-((1-(2-(2,6-dioxopiperidin-3-yl)-1,3-dioxoisoindolin-5-yl)piperidin-4-yl)methyl)piperazine-1-carbonyl)piperidin-4-yl)methyl)piperidin-4-yl)-2-(4-phenoxyphenyl)-4,5,6,7-tetrahydropyrazolo[1,5-a]pyrimidine-3-carboxamide]
IC50 (Mino cells; Homo sapiens, MINO): < 1000 nM
IC50 (JeKo-1 cells; Homo sapiens): 1000 to 10000 nM
DC50 (BTK; [1]): 10 to 50 nM
Dmax (BTK; [2]): > 90%

Nc1ncnc2c1c(-c1ccc(Oc3ccccc3)cc1)nn2C1CCN(CCN2CCN(CCCSc3ccc4c(c3)CN(C3CCC(=O)NC3=O)C4=O)CC2)CC1 (centres unmarked) [Compound 468]
IC50 (Mino cells; Homo sapiens, MINO): 1000 to 10000 nM
IC50 (JeKo-1 cells; Homo sapiens): 1000 to 10000 nM
DC50 (BTK; [1]): < 10 nM
Dmax (BTK; [2]): > 90%

Nc1ncnc2c1c(-c1ccc(Oc3ccccc3)cc1)nn2C1CCN(C2CCN(CCCN3CCC(c4ccc5c(c4)CN(C4CCC(=O)NC4=O)C5=O)CC3)CC2)CC1 (centres unmarked) [Compound 224, 3-(5-(1-(3-(4-(4-amino-3-(4-phenoxyphenyl)-1H-pyrazolo[3,4-d]pyrimidin-1-yl)-[1,4′-bipiperidin]-1′-yl)propyl)piperidin-4-yl)-1-oxoisoindolin-2-yl)piperidine-2,6-dione]
IC50 (Mino cells; Homo sapiens, MINO): 1000 to 10000 nM
IC50 (JeKo-1 cells; Homo sapiens): 1000 to 10000 nM
Dmax (BTK): > 75%
DC50 (BTK; BTK degradation): 10 to 50 nM

NC(=O)c1c(-c2ccc(Oc3ccccc3)cc2)nn2c1NCCC2C1CCN(C2CCN(C(=O)N3CCC(CN4CCN(c5ccc6c(c5)C(=O)N(C5CCC(=O)NC5=O)C6=O)CC4)CC3)CC2)CC1 (centres unmarked) [Compound 349, 7-(1′-(4-((4-(2-(2,6-dioxopiperidin-3-yl)-1,3-dioxoisoindolin-5-yl)piperazin-1-yl)methyl)piperidine-1-carbonyl)-[1,4′-bipiperidin]-4-yl)-2-(4-phenoxyphenyl)-4,5,6,7-tetrahydropyrazolo[1,5-a]pyrimidine-3-carboxamide]
IC50 (Mino cells; Homo sapiens, MINO): 1000 to 10000 nM
IC50 (JeKo-1 cells; Homo sapiens): 1000 to 10000 nM
Dmax (BTK): > 90%
DC50 (BTK; BTK degradation): 10 to 50 nM

NC(=O)c1c(-c2ccc(Oc3ccccc3)cc2)nn2c1NCC[C@H]2C1CCN(C(=O)N2CCC(CCN3CCC(c4ccc5c(c4)C(=O)N(C4CCC(=O)NC4=O)C5=O)CC3)CC2)CC1 (stereo partly drawn) [Compound 301, (7S)-7-(1-(4-(2-(4-(2-(2,6-dioxopiperidin-3-yl)-1,3-dioxoisoindolin-5-yl)piperidin-1-yl)ethyl)piperidine-1-carbonyl)piperidin-4-yl)-2-(4-phenoxyphenyl)-4,5,6,7-tetrahydropyrazolo[1,5-a]pyrimidine-3-carboxamide]
IC50 (Mino cells; Homo sapiens, MINO): 1000 to 10000 nM
IC50 (JeKo-1 cells; Homo sapiens): 1000 to 10000 nM
Dmax (BTK): > 75%
DC50 (BTK; BTK degradation): 10 to 50 nM

NC(=O)c1c(-c2ccc(Oc3ccccc3)cc2)nn2c1NCCC2C1CCN(C2CCN(C(=O)N3CCN(Cc4ccc5c(c4)CN(C4CCC(=O)NC4=O)C5=O)CC3)CC2)CC1 (centres unmarked) [Compound 340, 7-(1′-(4-((2-(2,6-dioxopiperidin-3-yl)-1-oxoisoindolin-5-yl)methyl)piperazine-1-carbonyl)-[1,4′-bipiperidin]-4-yl)-2-(4-phenoxyphenyl)-4,5,6,7-tetrahydropyrazolo[1,5-a]pyrimidine-3-carboxamide]
IC50 (Mino cells; Homo sapiens, MINO): > 10000 nM
IC50 (JeKo-1 cells; Homo sapiens): > 10000 nM
Dmax (BTK): > 50%
DC50 (BTK; BTK degradation): > 50 nM

NC(=O)c1c(-c2ccc(Oc3ccccc3)cc2)nn2c1NCCC2C1CCN(C2CCN(C(=O)N3CCC(C4CCN(c5ccc6c(c5)C(=O)N(C5CCC(=O)NC5=O)C6=O)CC4)CC3)CC2)CC1 (centres unmarked) [Compound 343, 7-(1′-(1′-(2-(2,6-dioxopiperidin-3-yl)-1,3-dioxoisoindolin-5-yl)-[4,4′-bipiperidine]-1-carbonyl)-[1,4′-bipiperidin]-4-yl)-2-(4-phenoxyphenyl)-4,5,6,7-tetrahydropyrazolo[1,5-a]pyrimidine-3-carboxamide]
IC50 (Mino cells; Homo sapiens, MINO): 1000 to 10000 nM
IC50 (JeKo-1 cells; Homo sapiens): < 1000 nM
Dmax (BTK): > 90%
DC50 (BTK; BTK degradation): < 10 nM

Nc1ncnc2c1c(-c1ccc(Oc3ccccc3)cc1)nn2C1CCN(C[C@@H]2CCN(CC3CN(c4ccc5c(c4)C(=O)N(C4CCC(=O)NC4=O)C5=O)C3)C2)CC1 (stereo partly drawn) [Compound 423b, 5-(3-(((S)-3-((4-(4-amino-3-(4-phenoxyphenyl)-1H-pyrazolo[3,4-d]pyrimidin-1-yl)piperidin-1-yl)methyl)pyrrolidin-1-yl)methyl)azetidin-1-yl)-2-(2,6-dioxopiperidin-3-yl)isoindoline-1,3-dione]
IC50 (Mino cells; Homo sapiens, MINO): < 1000 nM
IC50 (JeKo-1 cells; Homo sapiens): 1000 to 10000 nM
DC50 (BTK; [1]): 10 to 50 nM
Dmax (BTK; [2]): > 90%

NC(=O)c1c(-c2ccc(Oc3ccccc3)cc2)nn2c1NCC[C@H]2C1CCN(C(=O)N2CCC(CN3CCN(c4ccc5c(c4)C(=O)N(C4CCC(=O)NC4=O)C5=O)CC3)CC2)CC1 (stereo partly drawn) [Compound 291, (7S)-7-(1-(4-((4-(2-(2,6-dioxopiperidin-3-yl)-1,3-dioxoisoindolin-5-yl)piperazin-1-yl)methyl)piperidine-1-carbonyl)piperidin-4-yl)-2-(4-phenoxyphenyl)-4,5,6,7-tetrahydropyrazolo[1,5-a]pyrimidine-3-carboxamide]
IC50 (Mino cells; Homo sapiens, MINO): < 1000 nM
IC50 (JeKo-1 cells; Homo sapiens): < 1000 nM
Dmax (BTK): > 90%
DC50 (BTK; BTK degradation): 10 to 50 nM
